Measurements from US4698354A, “4-methoxy-isophthalic acid derivative having a pharmacological activity in thromboembolic disorders” (Societa Italo-Brittanica L. Manetti-H. Roberts & Co., priority 1986, dated 1987).

Key:
[1] = tested on: production of thromboxane B2 (TxB2); assay: Production of thromboxane B2 (TxB2) in human PRP after stimulation with collagen; format: cell-based; conditions: collagen 1 μg/ml, TxB2 measured in ug/ml
Method: In order to investigate the mechanism of action of G619 the production of malondialdehyde (MDA) and thromboxane B2 (TxB2) after stimulation with collagen 1 μg/ml was measured on human PRP.

[2] = tested on: production of 6-keto-PGFla; assay: Production of 6-keto-PGFla in human PRP after stimulation with collagen; format: cell-based; conditions: collagen 1 ug/ml
Method: The production of 6-keto-PGFla was also measured after stimulation of human PRP with collagen 1 ug/ml.

[3] = tested on: platelet aggregation induced in PRP using ADP; assay: Blood platelet anti-aggregant activity on human volounteers (ADP-induced aggregation in PRP); format: in vivo; conditions: 500 mg sole dose per os; for percent inhibition of the aggregation curve: ADP 2×10^-6 M
Method: On healthy human volounteers of both sexes aging from 31 to 53 the blood anti-aggregant activity was evaluated by per os treatment at a 500 mg sole dose, taking the blood samples before treatment and after 1-2-4-6 hours. The platelet aggregation was induced in PRP using ADP as aggregant agent at a concentration of 2×10^-6 M following the method illustrated in example 2. The platelet anti-aggregant activity reported in quantitative terms in the following table, was calculated as percent inhibition of the aggregation curve after treatment with respect to the […]

[4] = Acute toxicity (DL50), mouse; conditions: in vivo, sole administration, seven days observation
Source text: (§1) The compound object of the present invention has been tested to ascertain the acute toxicity, bio-disponibility and interference with the blood platelet function in vitro and in vivo by carrying out tests in all cases in comparison with another molecule, picotamide monohydrate, which is included in the same class of products, and the pharmacological activity of which is already known (see German patent 3113150).
(§2) The compound of the present invention was subjected to acute toxicity tests on two animal species and two administration routes. The animals which are treated per os or endovenously in a sole administration, have been held under observation for seven days after treatment by recording the symptomatology and the number of deaths. The results, referred in the following table, are indicated as the dose which produces the death of 50% of the treated animals (DL50) calculated by statistical method: […]

[5] = tested on: platelet aggregation induced with ADP; assay: Blood platelet anti-aggregant activity in vitro on human PRP, ADP; format: cell-based; conditions: for IC50: Platelet, ADP, human PRP, ten minutes incubation at 37° C., read-out: IC50 (50% decrease of maximum amplitude of aggregation curve)
Method: (§3) The blood platelet anti-aggregant activity of G619 was studied in comparison with picotamide on human platelet rich plasma (PRP), wherein the platelet aggregation was induced with ADP, collagen, AANa and U46619 after incubation at 37° C. for ten minutes with the compounds under test. The results, indicated as a concentration able to decrease by 50% (IC50) the maximum amplitude of the aggregation curve obtained with control plasma incubated only with the buffer, are the following: […]

[6] = tested on: Blood platelet aggregation from AANa; assay: Blood platelet anti-aggregate activity in vitro, arachidonic acid (AANa)-induced aggregation, rabbit PRP; format: cell-based; conditions: Oryctolagus cuniculus, 10 min, 10 minutes incubation at 37° C., read-out: IC50 (50% decrease of maximum amplitude of aggregation curve)
Source text: as §1
(§4) Platelet aggregation was induced in rabbit "platelet rich plasma" (PRP) by employing as aggregant agents adenosine diphosphate (ADP) and arachidonic acid (AANa) after incubation at 37° C. for 10 minutes with the compounds under test. The activity is expressed as the concentration able to decrease by 50% (IC50) the maximum amplitude (AM) of the aggregation curve so obtained, with respect to the aggregation curve as obtained with control plasmas incubated only with buffers.
(§5) The results of the tests effected with ADP and AANa are hereinafter referred: […]

[7] = Acute toxicity (DL50), rat; conditions: in vivo, sole administration, seven days observation
Source text: as §1, §2

[8] = tested on: Blood platelet aggregation from ADP; assay: Blood platelet anti-aggregate activity in vitro, ADP-induced aggregation, rabbit PRP; format: cell-based; conditions: Oryctolagus cuniculus, 10 min, 10 minutes incubation at 37° C., read-out: IC50 (50% decrease of maximum amplitude of aggregation curve)
Source text: as §1, §4, §5

[9] = tested on: platelet aggregation induced by arachidonic acid; assay: Blood platelet anti-aggregant activity in vivo (arachidonic acid-induced aggregation in PRP of treated rabbits); set-up: species or system New Zealand rabbits; conditions: for ED50: Oryctolagus cuniculus, Platelet, 0.5 h, rabbit, gum acacia suspension, blood taken 30 minutes after treatment, arachidonic acid, read-out: ID50 (dose decreasing by 50% the maximum amplitude of the aggregation curve)
Source text: as §1
New Zealand rabbits which had been held fasting for twelve hours with water ad libitum, were administered with G 619 and picotamide monohydrate at various dosages in a gum acacia suspension. To the control rabbits only gum acacia was administered. After 30 minutes from treatment the animals were anaesthetized with sodium pentothal (30 mg/Kg i.v.) and blood was taken from the carotid artery, rendered incoagulable with sodium citrate at 3,8% and centrifuged at 1400 rpm for 15 minutes in order to obtain the platelet rich plasma (PRP). On said PRP the platelet aggregation was induced by arachidonic acid and the corresponding aggregation curve was recorded using a Born aggregometer. The activity is indicated as the dose able to decrease by 50% (ID50) the maximum amplitude (AM) of the aggregation curve of plasma of treated animals with respect to that of plasma from control animals, the following results being obtained: […]

[10] = tested on: platelet aggregation induced with U46619; assay: Blood platelet anti-aggregant activity in vitro on human PRP, U46619; format: cell-based; conditions: ten minutes incubation at 37° C., read-out: IC50 (50% decrease of maximum amplitude of aggregation curve)
Method: as §3

[11] = tested on: platelet aggregation induced with collagen; assay: Blood platelet anti-aggregant activity in vitro on human PRP, collagen; format: cell-based; conditions: ten minutes incubation at 37° C., read-out: IC50 (50% decrease of maximum amplitude of aggregation curve)
Method: as §3

[12] = tested on: platelet aggregation induced with AANa; assay: Blood platelet anti-aggregant activity in vitro on human PRP, AANa; format: cell-based; conditions: ten minutes incubation at 37° C., read-out: IC50 (50% decrease of maximum amplitude of aggregation curve)
Method: as §3

[13] = Per os absorbtion in rat, plasma levels; format: in vivo; conditions: for concentration at 0.5 h: 1/2 h; for absorbtion, times higher than that of picotamide monohydrate: rat per os
Source text: as §1
Per os absorbtion tests have been carried out in rat after a sole administration of 100 mg/Kg in gum acacia suspension. The determinations of the blood levels of the two substances at various times have been effected on plasma using a high pressure liquid phase chromotograph and indicated as γ/ml. The values referred hereinafter represent the average of 8 determinations: […]

[14] = in vivo, po, rat, 100 mg/Kg per os, gum acacia suspension, average of 8 determinations, read-out: blood level (plasma)

COc1ccc(C(N)=O)cc1C(=O)NCc1cccnc1 [G 619, 3-carbamoyl(3'-picolyl)-4-methoxy-1-benzamide]
IC50 [1]: 4.6 µM
activation at 1 µM ([2]; starting from concentrations of 10^-6 M, read-out: increase in the production of 6-keto-PGFla): 100 to 150%
maximum activity (platelet anti-aggregant) ([3]; ADP): 53,8%
time after treatment of maximum activity ([3]; ADP): two
percent inhibition of the aggregation curve ([3]; 1 h): 38,2%
percent inhibition of the aggregation curve ([3]; 2 h): 53,8%
percent inhibition of the aggregation curve ([3]; 4 h): 43,4%
percent inhibition of the aggregation curve ([3]; 6 h): 24,2%
LD50 at 168 h ([4]; iv): 400 mg/kg
LD50 at 168 h ([4]; po, os): > 3000 mg/kg
IC50 [5]: 56 µM
power of action, factor higher with respect to picotamide ([5]; platelet aggregations induced in human PRP (ADP, collagen, AANa, U46619)): 10 factor
IC50 [6]: 26.9 µM
LD50 at 168 h ([7]; iv): 450 mg/kg
LD50 at 168 h ([7]; po, os): > 3000 mg/kg
IC50 [8]: 125 µM
ED50 [9]: 25 mg/kg
activity, times higher than that of picotamide monohydrate ([9]; rabbit in vivo, ID50): about 3 times
IC50 [10]: 9.2 µM
IC50 [11]: 11 µM
IC50 [12]: 4.2 µM
concentration at 0.5 h [13, 14]: 26900 ng/mL
concentration at 1 h [13, 14]: 20200 ng/mL
concentration at 2 h [13, 14]: 9400 ng/mL
concentration at 4 h ([13]; in vivo, po, rat, 100 mg/Kg per os, gum acacia suspension, 4 h, average of 8 determinations, read-out: blood level (plasma)): 2100 ng/mL
absorbtion, times higher than that of picotamide monohydrate ([13]; 1/2 hour): 8 times
absorbtion, times higher than that of picotamide monohydrate ([13]; 2 hours): 19 times

COc1ccc(C(=O)NCc2cccnc2)cc1C(=O)NCc1cccnc1 [Picotamide monohydrate, N-N'-bis-(3-picolyl)-4-methoxy-isophthalamide monohydrate, reference compound]
IC50 [1]: 10 µM
effect on production of 6-keto-PGFla (in words) ([2]; 10^-6 M): hardly efficient
maximum activity (platelet anti-aggregant) ([3]; ADP): 41,1%
percent inhibition of the aggregation curve ([3]; 1 h): 18,2%
percent inhibition of the aggregation curve ([3]; 2 h): 25,6%
percent inhibition of the aggregation curve ([3]; 4 h): 41,1%
percent inhibition of the aggregation curve ([3]; 6 h): 21,5%
LD50 at 168 h ([4]; iv): 275 mg/kg
LD50 at 168 h ([4]; po, os): 3000 mg/kg
IC50 [5]: 820 µM
IC50 [6]: 79 µM
LD50 at 168 h ([7]; iv): 190 mg/kg
LD50 at 168 h ([7]; po, os): 3000 mg/kg
IC50 [8]: 930 µM
ED50 [9]: 78 mg/kg
IC50 [10]: 250 µM
IC50 [11]: 100 µM
IC50 [12]: 89 µM
concentration at 0.5 h [13, 14]: 3400 ng/mL
concentration at 1 h [13, 14]: 1200 ng/mL
concentration at 2 h [13, 14]: 500 ng/mL
